Experimental data as given in US20180207249A1, “METHOD AND VACCINE COMPRISING COPOLYMER 1 FOR TREATMENT OF PSYCHIATRIC DISORDERS” (YEDA RESEARCH AND DEVELOPMENT CO. LTD., priority 2003, published 2018).

Columns and labels:
[1] = tested on: C57BL/6J mice injected with MK-801 or AMPH; assay: Morris water maze (MWM) spatial learning/memory task after psychotomimetic drug; format: in vivo, mouse; details: C57BL/6J mice immunized 1 week before MK-801
Procedure: (iii) Immunization. Each animal was injected with a total of 100 μg of Cop-1 emulsified in an equal volume of complete Freund's adjuvant (CPA) containing 5 mg/ml of Mycobacteria H37 RA (Difco). The emulsion, in a total volume of 0.1 mL, was injected into the flank 1 week before the mouse was first injected with a psychotomimetic drug. Control mice were injected with an equal volume of phosphate-buffered saline (PBS) emulsified in CFA.
(vi) Drug solutions. Fresh solutions of dizocilpine maleate (MK-801; Sigma-Aidrich) were prepared in physiological saline (0.9% NaCl in sterile distilled water) for each batch of mice. Physiological saline was also used as a vehicle for D-amphetamine sulfate (AMPH: Sigma). MK-801. (0.1 mg/kg) or AMPH (2.5 mg/kg) or sahne was injected i.p., in a total volume of 5 ml per kg of body weight. Mice were injected with MK-801, AMPH, or vehicle 15 min before being subjected to behavioral tests.
(vii) Morris water maze (MWM) behavioral test. Spatial learning/memory was assessed by performance on a hippocampal-dependent visuospatial learning task in the MWM. Mice were given four trials per day, for four consecutive days, to find a hidden platform located 1.5 cm below the water surface in a pool 1.4 m in diameter. Within the testing room only distal visuo-spatial cues were available to the mice for location of the submerged platform. The escape latency, i.e., the time required by the mouse to find and climb onto the platform, was recorded for up to 60 s. Each mouse was allowed to remain on the platform for 30 s, and was then moved from the maze to its home cage. […] The inter-trial interval was 30 s. On day 5, the platform was removed from the pool, and each mouse was tested by a probe trial for 60 s. On days 6-7 the platform was placed at the opposite, location, and the mouse was retrained in four sessions. Data were recorded by using an EthoVision automated tracking system (Noldus Information Technology, Wageningen, The Netherlands). […]

[2] = tested on: Treg (CD4+CD25+) co-cultured with effector T cells (Teff); assay: Inhibition assay (co-culturing of Teff with Treg), [3H]-thymidine incorporation; format: cell-based, mice; details: activated Treg incubated 2 h with Cop-1 20 μg/ml, Cop-1 20 μg/ml also added to co-culture
Procedure: (xviii) Purification of CB4^+CB25^+ and CD4^+CB25^− T cells. Lymph nodes were harvested and mashed. T cells were enriched by negative selection and purified on CD3-cell columns (MTCC-25; R&D Systems). The enriched T cells were incubated with and-CD8 raicrobeads (Miltenyi Biotec, Bergiseh Gladbach, Germany), and negatively selected CD4^+ T cells were incubated with PE-conjugated anti-CD25 (30 μg/10^8 cells) in PBS/2% fetal calf serum. They were then washed and incubated with anti-PE microbeads (Miltenyi Biotec) and subjected to magnetic separation with AutoMACS (Miltenyi Biotec). The retained cells were eluted from the column as purified CD4^+CD25^+ cells. The negative fraction consisted of CD4^+CD25^− T cells. Cell purity was chceked by FACSort (Becton-Dickinson) and typically ranged from 88% to 95%. Purified cells were cultured in 24-well plates (1 ml).
(xix) Activation of CB4^+CD25^+ regulatory T cells. […]
(xx) Inhibition assay (co-culturing of Teff with Treg). […] After the cells were harvested, their analyzed [^3H]-thymidine content was analyzed by the use of a […].
Naïve Teff cells (50×10^3 cells/well) were co-cultured with decreasing numbers ([…] cells/well) of Treg cells that have been activated for 24 h with anti-CD3 and mrIL 2. […] Recorded values are from one representative experiment out of three and are expressed as means±SD of 4 replicates.

[3] = tested on: mice injected with a psychotomimetic drug; assay: Social behavior test; format: in vivo, mouse; details: vaccinated mice vs controls; data not shown
[4] = tested on: rats exposed to psychotomimetic drugs; assay: Vaccination after exposure to psychotomimetic drugs; format: in vivo; details: vaccination after drug exposure, not shown

Copolymer 1 [Cop-1]
MWM extinction phase, time spent in training quadrant after MK-801 [1]: behaved similarly to WT mice | Treg-mediated suppression of Teff proliferation [2]: alleviated the suppression of Teff compared to the control | Communicative behavior in social behavior test [3]: better communicative behavior than the controls | Effect of vaccination given after psychotomimetic drugs [4]: beneficial
